Results taken from PMC10350920, “Development of a 2,4-Diaminothiazole Series for the Treatment of Human African Trypanosomiasis Highlights the Importance of Static–Cidal Screening of Analogues” (Journal of Medicinal Chemistry, 2023).

Assays:
[1] = Mouse liver microsomal intrinsic clearance; assay type: in vitro ADME
Summary of the method: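 Compound (0.5 μM) incubated with liver microsomes (0.5 mg/mL, 50 mM potassium phosphate pH 7.4) and excess NADPH; samples quenched at 0–30 min and analysed by UPLC–MS/MS. Rate constant from exponential decay of compound/internal standard ratio; CLint scaled with 52.5 mg protein/g liver.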

[2] = Mouse brain penetration (brain:blood ratio); assay type: in vivo, female NMRI mice; settings: mice, bolus of test compound, total compound
Method: Medicines for HAT are required to treat both acute and chronic infections, where parasites pass through the blood/brain barrier and enter the CNS. With this in mind, mice were dosed with an […] bolus of our test compounds, and compound concentrations in blood and brain were determined by UPLC–MS/MS. […] The brain fraction unbound was 0.0063 for 16 and 0.0313 for 38. Brain penetration of the series as a whole tracked with the generally accepted rules of CNS penetration, with a lower topological PSA (TPSA) and molecular weight compounds having an increased B/B ratio (Table S2 and Figure S1). However, the link between log P and the B/B ratio was slightly less convincing. […] This difference could be explained by 18 being a substrate for the P-glycoprotein efflux pump.
Each compound was dosed as an IV bolus at 10 mg kg^–1 dissolved in 15% solutol/Milli-Q (dose volume 10 mL kg^–1) to female NMRI mice (n = 3). At 30 min following the IV bolus of the test compound, mice (n = 3/time point) were placed under terminal anesthesia with isoflurane. A blood sample was taken by cardiac puncture and added to two volumes of distilled water, and the brain was removed. […] For each mouse at each time point, the concentration in the brain (ng g^–1) was divided by the concentration in blood (ng mL^–1) to give a brain: blood ratio.

[3] = Equilibrium dialysis, free fraction in brain; assay type: in vitro ADME, mouse
Method: In brief, a 96-well equilibrium dialysis apparatus was used to determine the free fraction in plasma and the brain (HT Dialysis LLC, Gales Ferry, CT). Isotonic buffer was prepared using 8.69 g of Na2HPO4, 1.9 g of KH2PO4, and 4.11 g of NaCl dissolved in 1 L of Milli-Q water, and the pH was adjusted to 7.4. Artificial CSF was prepared using 3.652 g of NaCl, 93.2 mg of KCl, 119.96 mg of MgCl2, 92.61 mg of CaCl2, and 268 mg of Na2HPO4 heptahydrate dissolved in 0.5 L of water, and the pH was adjusted to 7.4. Membranes [12–14 (plasma) or 6–9 (brain) kDA cutoff] were conditioned in deionized water for 60 min, followed by conditioning in 80:20 deionized water/ethanol for 20 min, and then rinsed in isotonic buffer (plasma) or […] (brain) before use. Female CD1 mouse plasma was defrosted and centrifuged for 10 min at 3000 rpm (Allegra X12-R, Beckman Coulter, USA). The control mouse brain was homogenized in two volumes of artificial CSF in a Covaris S2 acoustic homogenizer. […] All samples were analyzed by means of UPLC/MS/MS on a Quattro Premier XE or Micro TQs mass spectrometer (Waters Corporation, USA). The unbound fraction was determined as the ratio of the peak area in the buffer to that in the matrix.

Row | Compound | CLint (mouse) [1] [mL·min/g] | brain/blood (B/B) ratio [2] | brain free fraction (Fu, fraction unbound) ([3]; brain) | Kp at 30 min ([2]; female, NMRI, mouse, brain and blood, 10 mg kg^–1, read-out: brain/blood (B/B) ratio) | fraction unbound at 5 h, 10 μg mL^–1 ([3]; mouse, brain homogenate, pH 7.4, read-out: brain free fraction (Fu, fraction unbound))
1 | (4-Amino-2-(cyclohexylamino)thiazol-5-yl)(2,6-difluorophenyl)methanone [Compound 16] | 15 | 3.3 | 0.0063 |  | 
2 | CC(C)(O)CC(=O)c1sc(Nc2ccc(F)c(F)c2)nc1N [Compound 38, 1-(4-Amino-2-((3,4-difluorophenyl)amino)thiazol-5-yl)-3-hydroxy-3-methylbutan-1-one] | 2.2 |  |  | 1.4 | 0.0313
